Structures can show the parent of a compound that is named as a salt.
Tests used:
Aspergillus species = test: Minimum inhibitory concentration (MIC) assay, filamentous fungi; format: cell-based; settings: antifungal activity, lowest concentration at which 75% inhibition of growth is observed after 48 h
Description: (§1) The assays described below were used to measure the minimum inhibitory concentration (MIC) of a compound necessary to inhibit visible growth of the organism tested. These assays are adapted from NCCLS protocols M7-A4 and M27-A (NCCLS vol 17:9 and vol 17:2) as modified by Sandven, S., Clin. Micro. (1999) 37:12, p. 3856–3859. MIC values for Aspergillus species were determined using NCCLS protocol M38-P.
(§2) All compounds were dissolved in 100% DMSO to a stock concentration of 10 mM and used fresh stock compounds in powder form were kept frozen until needed and used freshly. When used for test purposes, compounds were diluted in the appropriate media depending on the organism being tested.
(§3) For yeast and aspergillus species, seven 1:2 serial dilutions of compound in appropriate media buffered with MOPS at pH 7.0 were prepared such that the final starting test compound concentrations were 44.4 μM for yeast and 50 μM aspergillus species. For bacteria, dilutions were made in growth media used for the particular bacteria being tested.
Inoculums are made by incubating Aspergillus species for 7 days at 35° C. on potato dextrose agar slants. Slants are then covered with 1.0 mL of 0.85% saline, one drop of Tween 20 is added and colonies are teased with a sterile transfer loop to create a suspension which is allowed to sit for 5 min so heavier particles can drop out. The upper suspension is separated and adjusted to an optical density of 0.09 to 0.11. The resulting suspension is diluted 1:50, which yields 2× the final inoculum needed. Micro dilution trays are prepared as with yeast and incubated for 48 h at 35° C. For our purposes the MIC is defined as the lowest compound concentration at which 75% inhibition of growth is observed after 48 h.

bacteria = test: Minimum inhibitory concentration (MIC) assay, bacteria; format: cell-based
Description: as §1, §2, §3
Five well-separated colonies from a 24 h Sabouraud Dextrose plate incubated at 35° C. were picked and resuspended into 2 mL of normal saline. The O.D.530 was read and the culture was adjusted to 0.5 McFarland units with normal saline. A 1:2000 dilution was made with RPMI 1640 media buffered with MOPS at pH 7.0 and 100 μL of this inoculum preparation was added to an equal volume of test compound-containing media. 25 μL of the redox indicator Alamar Blue (Biosource International) was added to each well and the plates were incubated for 48 h at 35° C. Wells having yeast growth changed color from blue to pink.
Inoculums are made in the same manner as yeast except all dilutions are made in normal saline, with a final dilution of 1:200 and an inoculum of 10 μL.

CC(=N)NCC1CCC(CNC(=O)c2cc3cc(NC(=O)c4ccc5[nH]c(C(=O)NCC6CCC(CNC(C)=N)CC6)cc5c4)ccc3[nH]2)CC1 (centres unmarked) [Compound 23, 1H-Indole-2,5-dicarboxylic acid 2-{[4-(acetimidoylamino-methyl)-cyclohexylmethyl]-amide} 5-[(2-{[4-(acetimidoylamino-methyl)-cyclohexylmethyl]-carbamoyl}-1H-indol-5-yl)-amide]]
MIC (Aspergillus species): ≤ 50 µM
MIC (bacteria): ≤ 45.5 µM

N=C(N)NCC1CCCC(CNC(=O)c2cc3cc(NC(=O)c4ccc5[nH]c(C(=O)NCC6CCCC(CNC(=N)N)C6)cc5c4)ccc3[nH]2)C1 (centres unmarked) [Compound 24, 1H-Indole-2,5-dicarboxylic acid 2-[(3-guanidinomethyl-cyclohexylmethyl)-amide] 5-({2-[(3-guanidinomethyl-cyclohexylmethyl)-carbamoyl}-1H-indol-5-yl}-amide)]
MIC (Aspergillus species): ≤ 50 µM
MIC (bacteria): ≤ 45.5 µM

N=C(N)NCc1cccc(CNC(=O)c2cc3cc(NC(=O)c4ccc5[nH]c(C(=O)NCc6cccc(CNC(=N)N)c6)cc5c4)ccc3[nH]2)c1 [Compound 25, 1H-Indole-2,5-dicarboxylic acid 2-(3-guanidinomethyl-benzylamide) 5-{[2-(3-guanidinomethyl-benzylcarbamoyl)-1H-indol-5-yl]-amide}]
MIC (Aspergillus species): ≤ 50 µM
MIC (bacteria): ≤ 45.5 µM

N=C(N)NCCNC(=O)c1ccc2[nH]c(C(=O)Nc3ccc4cc(C(=O)NCCNC(=N)N)[nH]c4c3)cc2c1 [Compound 47, 1H-Indole-2,5-dicarboxylic acid 5-[(2-guanidino-ethyl)-amide] 2-{[2-(2-guanidino-ethylcarbamoyl)-1H-indol-6-yl]-amide}]
MIC (Aspergillus species): ≤ 50 µM
MIC (bacteria): ≤ 45.5 µM

CNC(=N)NCCNC(=O)c1ccc2[nH]c(C(=O)Nc3ccc4cc(C(=O)NCCNC(=N)NC)[nH]c4c3)cc2c1 [Compound 48, 1H-Indole-2,5-dicarboxylic acid 5-{[2-(N′-methyl-guanidino)-ethyl]-amide} 2-({2-[2-(N′methyl-guanidino)-ethylcarbamoyl]-1H-indol-6-yl}-amide)]
MIC (Aspergillus species): ≤ 50 µM
MIC (bacteria): ≤ 45.5 µM

O=C(NCCNC1=NCCN1)c1ccc2[nH]c(C(=O)Nc3ccc4cc(C(=O)NCCNC5=NCCN5)[nH]c4c3)cc2c1 [Compound 50, 1H-Indole-2,5-dicarboxylic acid 5-{[2-(4,5-dihydro-1H-imidazol-2-ylamino)-ethyl]amide} 2-({2-[2-(4,5-dihydro-1H-imidazol-2-ylamino)-ethylcarbamoyl]-1H-indol-6-yl}-amide)]
MIC (Aspergillus species): ≤ 50 µM
MIC (bacteria): ≤ 45.5 µM

N=C(N)NCCCNC(=O)c1ccc2[nH]c(C(=O)Nc3ccc4cc(C(=O)NCCNC(=N)N)[nH]c4c3)cc2c1 [Compound 52, 1H-Indole-2,5-dicarboxylic acid 2-{[2-(2-guanidinoethylcarbamoyl)-1H-indol-6-yl]amide} 5-[(3-guanidinopropyl)amide]dihydrochloride]
MIC (Aspergillus species): ≤ 50 µM
MIC (bacteria): ≤ 45.5 µM

C/N=C(\N)NCCCNC(=O)c1ccc2[nH]c(C(=O)Nc3ccc4cc(C(=O)NCCN/C(N)=N/C)[nH]c4c3)cc2c1 [Compound 53, 1H-Indole-2,5-dicarboxylic acid 2-({2-[2-(N′-methylguanidino)ethylcarbamoyl]-1H-indole-6-yl}amide) 5-{[3-(N′-methylguanidino)propyl]amide}dihydrochloride]
MIC (Aspergillus species): ≤ 50 µM
MIC (bacteria): ≤ 45.5 µM

C/N=C(\NC)NCCCNC(=O)c1ccc2[nH]c(C(=O)Nc3ccc4cc(C(=O)NCCN/C(=N/C)NC)[nH]c4c3)cc2c1 [Compound 54, 1H-Indole-2,5-dicarboxylic acid 2-({2-[2-(N′,N″-dimethylguanidino)ethylcarbamoyl]-1H-indole-6-yl}amide) 5-{[3-(N′,N″-dimethylguanidino)propyl]amide}dihydrochloride]
MIC (Aspergillus species): ≤ 50 µM
MIC (bacteria): ≤ 45.5 µM

CNC(=N)NCCNC(=O)c1ccc2[nH]c(C(=O)Nc3ccc4[nH]c(C(=O)NCCNC(=N)NC)cc4c3)cc2c1 [Compound 55]
MIC (Aspergillus species): ≤ 50 µM
MIC (bacteria): ≤ 45.5 µM

O=C(NCCNC1=NCCN1)c1ccc2[nH]c(C(=O)Nc3ccc4[nH]c(C(=O)NCCNC5=NCCN5)cc4c3)cc2c1 [Compound 57, 1H-In dole-2,5-dicarboxylic acid 5-{[2-(4,5-dihydro-1H-imidazol-2-ylamino)ethyl]amide} 2-({2-[2-(4,5-dihydro-1H-imidazol-2-ylamino)ethylcarbamoyl]-1H-indole-5-yl}amide)dihydrochloride]
MIC (Aspergillus species): ≤ 50 µM
MIC (bacteria): ≤ 45.5 µM

N=C(N)NCCCNC(=O)c1ccc2[nH]c(C(=O)Nc3ccc4[nH]c(C(=O)NCCNC(=N)N)cc4c3)cc2c1 [Compound 58, 1H-Indole-2,5-dicarboxylic acid 2-{[2-(2-guanidinoethylcarbamoyl)-1H-indol-5-yl]amide} 5-[(3-guanidinopropyl)amide]dihydrochloride]
MIC (Aspergillus species): ≤ 50 µM
MIC (bacteria): ≤ 45.5 µM

C/N=C(\N)NCCCNC(=O)c1ccc2[nH]c(C(=O)Nc3ccc4[nH]c(C(=O)NCCN/C(N)=N/C)cc4c3)cc2c1 [Compound 59, 1H-Indole-2,5-dicarboxylic acid 2-({2-[2-(N′methylguanidino)ethylcarbamoyl]-1H-indol-5-yl}amide) 5-{[3-(N′methylguanidino)propyl]amide}hydrochloride]
MIC (Aspergillus species): ≤ 50 µM
MIC (bacteria): ≤ 45.5 µM

C/N=C(\NC)NCCCNC(=O)c1ccc2[nH]c(C(=O)Nc3ccc4[nH]c(C(=O)NCCN/C(=N/C)NC)cc4c3)cc2c1 [Compound 60, 1H-Indole-2,5-dicarboxylic acid 2-({2-[2-(N′,N″-dimethylguanidino)ethylcarbamoyl]-1H-indol-5-yl}amide) 5-{[3-(N′,N″-dimethylguanidino)propyl]amide}hydrochloride]
MIC (Aspergillus species): ≤ 50 µM
MIC (bacteria): ≤ 45.5 µM

N=C(N)CCNC(=O)c1cc2cc(NC(=O)c3cc4cc(C(=O)NCCNC(=N)N)ccc4[nH]3)ccc2[nH]1 [Compound 61, 1H-Indole-2,5-dicarboxylic acid 2-{[2-(2-carbamimidoylethylcarbamoyl)-1H-indol-5-yl]amide} 5-[(2-guanidinoethyl)amide]dihydrochloride]
MIC (Aspergillus species): ≤ 50 µM
MIC (bacteria): ≤ 45.5 µM

N=C(N)NCCCNC(=O)c1cc2ccc(NC(=O)c3cc4cc(C(=O)NCCNC(=N)N)ccc4[nH]3)cc2[nH]1 [Compound 62, 1H-Indole-2,5-dicarboxylic acid 5-[(2-guanidino-ethyl)-amide] 2-{[2-(3-guanidino-propylcarbamoyl)-1H-indol-6-yl]-amide}]
MIC (Aspergillus species): ≤ 50 µM
MIC (bacteria): ≤ 45.5 µM

CNC(=N)NCCCNC(=O)c1cc2ccc(NC(=O)c3cc4cc(C(=O)NCCNC(=N)NC)ccc4[nH]3)cc2[nH]1 [Compound 63, 1H-Indole-2,5-dicarboxylic acid 5-{[2-(N′-methyl-guanidino)-ethyl]-amide} 2-({2-[3-(N′-methyl-guanidino)-propylcarbamoyl]-1H-indol-6-yl}-amide)]
MIC (Aspergillus species): ≤ 50 µM
MIC (bacteria): ≤ 45.5 µM

C/N=C(\NC)NCCCNC(=O)c1cc2ccc(NC(=O)c3cc4cc(C(=O)NCCN/C(=N/C)NC)ccc4[nH]3)cc2[nH]1 [Compound 64]
MIC (Aspergillus species): ≤ 50 µM
MIC (bacteria): ≤ 45.5 µM

N=C(N)NCCCNC(=O)c1cc2cc(NC(=O)c3cc4cc(C(=O)NCCNC(=N)N)ccc4[nH]3)ccc2[nH]1 [Compound 67, 1H-Indole-2,5-dicarboxylic acid 5-[(2-guanidino-ethyl)-amide] 2-{[2-(3-guanidino-propylcarbamoyl)-1H-indol-5-yl]-amide}]
MIC (Aspergillus species): ≤ 50 µM
MIC (bacteria): ≤ 45.5 µM

C/N=C(\N)NCCCNC(=O)c1cc2cc(NC(=O)c3cc4cc(C(=O)NCCNC(=N)NC)ccc4[nH]3)ccc2[nH]1 [Compound 68, 1H-Indole-2,5-dicarboxylic acid 5-{[2-(N′-methyl-guanidino)-ethyl]-amide} 2-({2-[3-(N′-methyl-guanidino)-propylcarbamoyl]-1H-indol-5-yl}-amide)]
MIC (Aspergillus species): ≤ 50 µM
MIC (bacteria): ≤ 45.5 µM

C/N=C(\NC)NCCCNC(=O)c1cc2cc(NC(=O)c3cc4cc(C(=O)NCCN/C(=N/C)NC)ccc4[nH]3)ccc2[nH]1 [Compound 69, 1H-Indole-2,5-dicarboxylic acid 2-{[2-(N′,N″-dimethyl-guanidino)-ethyl]-amide} 5-({2-[3-(7N′,N″-dimethyl-guanidino)-propylcarbamoyl]-1H-indol-5-yl}-amide)]
MIC (Aspergillus species): ≤ 50 µM
MIC (bacteria): ≤ 45.5 µM

N=C(N)NCCCNC(=O)c1ccc2[nH]c(C(=O)Nc3ccc4cc(C(=O)NCCCNC(=N)N)[nH]c4c3)cc2c1 [Compound 72, 1H-Indole-2,5-dicarboxylic acid 5-[(3-guanidino-propyl)-amide] 2-{[2-(3-guanidino-propylcarbamoyl)-1H-indol-6-yl-]-amide}]
MIC (Aspergillus species): ≤ 50 µM
MIC (bacteria): ≤ 45.5 µM
